Values of other authors in PMC7765930, “Antiproliferative Phenanthrenes from Juncus tenuis: Isolation and Diversity-Oriented Semisynthetic Modification” (Molecules, 2020).

Key:
HL-60 cell line = tested on: HL-60 cell line; parameters: method as in PMID 22976333; conditions: read-out: IC50, cytotoxicity against HL-60; cited from earlier work
A549 cells = tested on: A549 cells; parameters: method as in PMID 19193043; conditions: read-out: IC50, growth inhibition A549; cited from earlier work
PC-3 cells = tested on: PC-3 cells; parameters: method as in PMID 19193043; conditions: read-out: IC50, growth inhibition PC-3; cited from earlier work
DU145 cells = tested on: DU145 cells; parameters: method as in PMID 19193043; conditions: read-out: IC50, growth inhibition DU145; cited from earlier work
HCT-8 cells = tested on: HCT-8 cells; parameters: method as in PMID 19193043; conditions: read-out: IC50, growth inhibition HCT-8; cited from earlier work
MCF-7 cells = tested on: MCF-7 cells; parameters: method as in PMID 19193043; conditions: read-out: IC50, growth inhibition MCF-7; cited from earlier work
KB cells = tested on: KB cells; parameters: method as in PMID 19193043; conditions: read-out: IC50, growth inhibition KB; cited from earlier work
[1] = tested on: vincristine resistant KBVIN cells; parameters: method as in PMID 19193043; conditions: read-out: IC50, growth inhibition KBVIN; cited from earlier work

For `COC1=C(OC)C(=O)c2c(ccc3cccc(O)c23)C1=O` [5-hydroxy-2,3-dimethoxy-1,4-phenanthrenequinone], the IC50 (HL-60 cell line) is given as 4700 nM.
For `COC1=CC(=O)c2ccc3cc(OC)c(OC)c(O)c3c2C1=O` [calanquinone A], the IC50 (A549 cells) is listed as 610 nM, the IC50 (PC-3 cells) is listed as 510 nM and the IC50 (DU145 cells) is listed as 1080 nM. For the same compound, the IC50 (HCT-8 cells) was 640 nM, the IC50 (MCF-7 cells) was 100 nM and the IC50 (KB cells) was 1020 nM. The IC50 [1] was 1430 nM.
